Measured values: patent US20120328569A1, “INHIBITORS OF HEPATITIS C VIRUS NS5B POLYMERASE” (priority 2010, published 2012)

These molecules were tested on HCV genotype 1b replicon (assay: HCV replicon assay, cell ELISA with antibody to replicon-encoded NS3/4A (genotype 1b replicon)). Conditions: Hepatitis C virus, 96 h, read-out: 1b IC50(nM), HCV genotype 1b replicon; 96 hours incubation; NS3/4A cell ELISA.
Type: cell-based, hepatitis C virus
Protocol: The HCV NS5B inhibitory activity of the present compounds may be tested using assays known in the art. The HCV NS5B polymerase inhibitors described herein have activities in a genotype 1b replicon assay as described in the Examples. The assay is performed by incubating a replicon harboring cell-line in the presence of inhibitor for a set period of time and measuring the effect of the inhibitor on HCV replicon replication either directly by quantifying replicon RNA level, or indirectly by measuring enzymatic activity of a co-encoded reporter enzyme such as luciferase or β-lactamase. By performing a series of such measurements at different inhibitor concentrations, the effective inhibitory concentration of the inhibitor (EC50 or EC90) is determined. See Jan M. Vrolijk et al., A replicons-based bioassay for the measurement of interferons in patients with chronic hepatitis C, 110 J. VIROLOGICAL METHODS 201 (2003). Such assays may also be run in an automated format for high through-put screening. See Paul Zuck et al., A cell-based β-lactamase reporter gene assay for the identification of inhibitors of hepatitis C virus replication, 334 ANALYTICAL BIOCHEMISTRY 344 (2004).
Measurement of inhibition by compounds was performed using the HCV replicon system. Several different replicons encoding different HCV genotypes or mutations were used. In addition, potency measurements were made using different formats of the replicon assay, including different ways of measurements and different plating formats. See Jan M. Vrolijk et al., A replicons-based bioassay for the measurement of interferons in patients with chronic hepatitis C, 110 J. VIROLOGICAL METHODS 201 (2003); Steven S. Carroll et al., Inhibition of Hepatitis C Virus RNA Replication by 2′-Modified Nucleoside Analogs, 278(14) J. BIOLOGICAL CHEMISTRY 11979 (2003). However, the underlying principles are common to all of these determinations, and are outlined below.
Stable neomycin phosphotransferase encoding replicons-harboring cell lines were used, so all cell lines were maintained under G418 selection prior to the assay. Potency was determined using a cell ELISA assay with an antibody to the replicons encoded NS3/4a protease. See Caterina Trozzi et al., In Vitro Selection and Characterization of Hepatitis C Virus Serine Protease Variants Resistant to an Active-Site Peptide Inhibitor, 77(6) J. Virol. 3669 (2003). To initiate an assay, replicon cells were plated in the presence of a dilution series of test compound in the absence of G418. Typically, the assays were performed in a 96-well plate formate for manual operation, or a 384-well plate format for automated assay. Replicon cells and compound were incubated for 96 hours. At the end of the assay, cells were washed free of media and compound, and the cells were then lysed. RNA was quantified indirectly through detection of replicon-encoded NS3/4A protein levels, through an ELISA-based assay with an antibody specific for NS3/4A. IC50 determinations were calculated as a percentage of a DMSO control by fitting the data to a four-parameter fit function and the data obtained is provided in the table below.

Row | Compound | IC50
1 | CNC(=O)c1c(-c2ccc(F)cc2)oc2cc(N(CC(F)F)S(C)(=O)=O)c(-c3ccc(OC)c(-c4nc5cccc(F)c5o4)c3)cc12 [Example 878] | 17.2 nM
2 | CNC(=O)c1c(-c2ccc(F)cc2)oc2cc(N(C)S(C)(=O)=O)c(-c3ccc4c(c3)-c3[nH]c5ccccc5c3C(C(C)(C)C)O4)cc12 (centres unmarked) [Example 590] | 44.1 nM
3 | CNC(=O)c1c(-c2ccc(F)cc2)oc2cc(N(CC3CCOC3)S(C)(=O)=O)c(-c3ccc(OC)c(-c4nc5c(F)cc(F)cc5o4)c3)cc12 (centres unmarked) [Example 729] | 3.3 nM
4 | CNC(=O)c1c(-c2ccc(F)cc2)oc2cc(N(C)S(C)(=O)=O)c(-c3ccc(OC)c(-c4nc5c(CC#N)cccc5[nH]4)c3)cc12 [Example 427] | 4.35 nM
5 | CNC(=O)c1c(-c2ccc(F)cc2)oc2cc(N(C)S(C)(=O)=O)c(-c3ccc(OCC(F)F)c(-c4cc5ccccc5[nH]4)c3)cc12 [Example 622] | 647 nM
6 | CNC(=O)c1c(-c2ccc(F)cc2)oc2cc(N(C)S(C)(=O)=O)c(-c3ccc(-c4cnco4)c(-c4nc5c(F)cccc5o4)c3)cc12 [Example 479] | 1.95 nM
7 | CNC(=O)c1c(-c2ccc(F)cc2)oc2cc(N(CC(C)(C)O)S(C)(=O)=O)c(-c3ccc(OC)c(-c4nc5cccc(F)c5o4)c3)cc12 [Example 778] | 24.8 nM
8 | CNC(=O)c1c(-c2ccc(F)cc2)oc2cc(N(CCCP(=O)(O)O)S(C)(=O)=O)c(-c3ccc(OC)c(-c4nc5c(F)cccc5o4)c3)cc12 [Example 843] | 19.5 nM
9 | CNC(=O)c1c(-c2ccc(F)cc2)oc2cc(N(C)S(C)(=O)=O)c(-c3ccc(OC)c(-c4nc5cc(F)ccc5o4)c3)cc12 [Example 857] | 2.6 nM
10 | CNC(=O)c1c(-c2ccc(F)cc2)oc2cc(N(CC(O)CC#N)S(C)(=O)=O)c(-c3ccc(OC)c(-c4nc5c(F)cc(F)cc5o4)c3)cc12 (centres unmarked) [Example 819] | 8.3 nM
11 | CNC(=O)c1c(-c2ccc(F)cc2)oc2cc(N(Cc3cccnc3)S(C)(=O)=O)c(-c3ccc(OC)c(-c4nc5c(F)cc(F)cc5o4)c3)cc12 [Example 709] | 6.05 nM
12 | CNC(=O)c1c(-c2ccc(F)cc2)oc2cc(N(C)S(C)(=O)=O)c(-c3cccc(-n4nc5ccccc5c4-c4cccnc4)c3)cc12 [Example 549] | 65.9 nM

Same assay, conditions: Hepatitis C virus, 96 h, read-out: Replicon 1b IC50 (nM), HCV genotype 1b replicon cells, 96 hours incubation, NS3/4A ELISA readout

Row | Compound | IC50
13 | CNC(=O)c1c(-c2ccc(F)cc2)oc2cc(N(CC3CCC3)S(C)(=O)=O)c(-c3ccccc3)cc12 [Example 21, 6-[(cyclobutylmethyl) (methylsulfonyl)amino]-2-(4-fluorophenyl)-N-methyl-5-phenyl-1-benzofuran-3-carboxamide] | 115 nM
14 | CNC(=O)c1c(-c2ccc(F)cc2)oc2cc(N(C)S(C)(=O)=O)c(-c3cc(OC)cc(-c4nc5cc(Cl)cnc5[nH]4)c3)cc12 [Example 317] | 2.9 nM
15 | CNC(=O)c1c(-c2ccc(F)cc2)oc2cc(N(C)S(C)(=O)=O)c(-c3ccc(F)c(-c4nc5cncnc5[nH]4)c3)cc12 [Example 342] | 5.1 nM
16 | CNC(=O)c1c(-c2ccc(F)cc2)oc2cc(N(C)S(C)(=O)=O)c(-c3ccc(OC)c(-c4nc5c(F)ccc(F)c5o4)c3)cc12 [Example 409] | 2.1 nM
17 | CNC(=O)c1c(-c2ccc(F)cc2)oc2cc(N(C)S(C)(=O)=O)c(-c3cc(-c4nc5ccccc5o4)c(OC)cc3F)cc12 [Example 180] | 5 nM
18 | CNC(=O)c1c(-c2ccc(F)cc2)oc2cc(N(C)S(C)(=O)=O)c(-c3cccc(-c4nc5ccc(CN(C)C)cc5s4)c3)cc12 [Example 298, 5-(3-(6-((dimethylamino)methyl)benzo[d]thiazol-2-yl)phenyl)-2-(4-fluorophenyl)-N-methyl-6-(N-methylmethylsulfonamido)benzofuran-3-carboxamide] | 6 nM
19 | CNC(=O)c1c(-c2ccc(F)cc2)oc2cc(N(CCCCC#N)S(C)(=O)=O)c(-c3cccc(-c4nc5ncccc5o4)c3)cc12 [Compound 394] | 1.4 nM
20 | CONC(=O)c1c(-c2ccc(F)cc2)oc2cc(N(C)S(C)(=O)=O)c(-c3ccc(C)cc3)cc12 [Example 93, 2-(4-fluorophenyl)-N-methoxy-6-[methyl (methylsulfonyl)amino]-5-(4-methylphenyl)-1-benzofuran-3-carboxamide] | 54 nM
21 | CNC(=O)c1c(-c2ccc(F)cc2)oc2cc(N(C)S(C)(=O)=O)c(-c3ccc(Cl)c(-c4nc5cnccc5o4)c3)cc12 [Example 215] | 2.1 nM
22 | CNC(=O)c1c(-c2ccc(F)cc2)oc2cc(N(C)S(C)(=O)=O)c(-c3ccc(C(F)(F)F)cc3)cc12 [Example 108, 2-(4-fluorophenyl)-N-methyl-6-[methyl(methylsulfonyl)amino]-5-[4-(trifluoromethyl)phenyl]-1-benzofuran-3-carboxamide] | 53 nM
23 | CNC(=O)c1c(-c2ccc(F)cc2)oc2cc(N(C)S(C)(=O)=O)c(-c3ccc(OC)cc3)cc12 [Example 89, 2-(4-fluorophenyl)-5-(4-methoxyphenyl)-N-methyl-6-[methyl (methylsulfonyl)amino]-1-benzofuran-3-carboxamide] | 23 nM
24 | CNC(=O)c1c(-c2ccc(F)cc2)oc2cc(N(C)S(C)(=O)=O)c(-c3cccc(-c4nc5ccc(Br)cc5[nH]4)c3)cc12 [Example 153, 5-[3-(6-bromo-1H-benzimidazol-2-yl)phenyl]-2-(4-fluorophenyl)-N-methyl-6-[methyl (methylsulfonyl)amino]-1-benzofuran-3-carboxamide] | 4 nM
25 | CCN(c1cc2oc(-c3ccc(F)cc3)c(C(=O)NC)c2cc1-c1ccccc1)S(C)(=O)=O [Example 5, 6-[ethyl (methylsulfonyl)amino]-2-(4-fluorophenyl)-N-methyl-5-phenyl-1-benzofuran-3-carboxamide] | 47 nM
26 | CNC(=O)c1c(-c2ccc(F)cc2)oc2cc(N(C)S(C)(=O)=O)c(-c3ccc(F)c(-c4nc5ccccc5s4)c3)cc12 [Example 145, 5-[3-(1,3-benzothiazol-2-yl)-4-fluorophenyl]-2-(4-fluorophenyl)-N-methyl-6-[methyl (methylsulfonyl)amino]-1-benzofuran-3-carboxamide] | 6 nM
27 | CNC(=O)c1c(-c2ccc(F)cc2)oc2cc(N(C)S(C)(=O)=O)c(-c3cccc(-c4nc5nccnc5o4)c3)cc12 [Example 240] | 1.9 nM
28 | CNC(=O)c1c(-c2ccc(F)cc2)oc2cc(N(C)S(C)(=O)=O)c(-c3ccc(OC(F)(F)F)c(-c4nc5cccnc5o4)c3)cc12 [Example 231] | 6.6 nM
29 | CNC(=O)c1c(-c2ccc(F)cc2)oc2cc(N(C)S(C)(=O)=O)c(-c3cccc(-c4nc5ccc(OS(C)(=O)=O)nc5[nH]4)c3)cc12 [Example 329] | 4.9 nM
30 | CCOC(=O)CN(c1cc2oc(-c3ccc(F)cc3)c(C(=O)NC)c2cc1-c1ccccc1)S(C)(=O)=O [Example 41, ethyl N-[2-(4-fluorophenyl)-3-(methylcarbamoyl)-5-phenyl-1-benzofuran-6-yl]-N-(methylsulfonyl) glycinate] | > 2000 nM
31 | CNC(=O)c1c(-c2ccc(F)cc2)oc2cc(N(C)S(C)(=O)=O)c(-c3ccc(OC)c(-c4nc5c(N)ncnc5[nH]4)c3)cc12 [Example 349] | 5.7 nM
32 | CNC(=O)c1c(-c2ccc(F)cc2)oc2cc(N(C)S(C)(=O)=O)c(-c3cccc(-c4nc5ccc(F)cc5s4)c3)cc12 [Example 147, 5-[3-(6-fluoro-1,3-benzothiazol-2-yl)phenyl]-2-(4-fluorophenyl)-N-methyl-6-[methyl (methylsulfonyl)amino]-1-benzofuran-3-carboxamide] | 7 nM
33 | CNC(=O)c1c(-c2ccc(F)cc2)oc2cc(N(C)S(C)(=O)=O)c(-c3cc(F)c(OC)c(-c4nc5ccccc5o4)c3)cc12 [Example 181] | 5.7 nM
34 | CNC(=O)c1c(-c2ccc(F)cc2)oc2cc(N(C)S(C)(=O)=O)c(-c3ccc(OC)c(-c4nc5ccccc5s4)c3)cc12 [Example 144, 5-[3-(1,3-benzothiazol-2-yl)-4-methoxyphenyl]-2-(4-fluorophenyl)-N-methyl-6-[methyl (methylsulfonyl)amino]-1-benzofuran-3-carboxamide] | 11 nM
35 | CNC(=O)c1c(-c2ccc(F)cc2)oc2cc(N(C)S(C)(=O)=O)c(-c3ccc(OC)c(-c4nc5c(C)cccc5o4)c3)cc12 [Example 190] | 2.2 nM
